{"source": "paper PMC3684073", "about": "(Journal of agricultural and food chemistry, 2008)", "key": {"5-HT7 receptor [1]": {"biological_target": "T1, 5-HT7 receptor (Homo sapiens, UniProt P34969)", "T1 sequence (P34969 whole entry)": "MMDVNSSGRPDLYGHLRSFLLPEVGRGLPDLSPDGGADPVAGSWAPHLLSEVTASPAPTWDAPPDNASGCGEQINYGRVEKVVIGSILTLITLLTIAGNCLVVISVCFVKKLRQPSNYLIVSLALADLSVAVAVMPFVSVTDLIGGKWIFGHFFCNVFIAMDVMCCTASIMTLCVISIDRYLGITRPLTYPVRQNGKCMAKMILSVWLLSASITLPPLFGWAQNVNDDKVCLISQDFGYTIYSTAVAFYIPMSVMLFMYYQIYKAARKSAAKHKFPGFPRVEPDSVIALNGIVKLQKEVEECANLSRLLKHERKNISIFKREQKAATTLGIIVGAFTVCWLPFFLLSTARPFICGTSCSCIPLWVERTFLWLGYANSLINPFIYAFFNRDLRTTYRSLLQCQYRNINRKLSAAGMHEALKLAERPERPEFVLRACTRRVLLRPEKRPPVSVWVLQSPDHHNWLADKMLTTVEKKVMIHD", "experiment": "5-HT7 receptor competitive binding assay", "conditions": "for 5-HT7 competitive binding % Inhibition ± SD: tested at 50 μM, NA = not active"}, "5-HT7 receptor [2]": {"biological_target": "T1, 5-HT7 receptor", "experiment": "Intracellular cAMP assay in 5-HT7-transfected HEK293 cells", "type": "cell-based"}, "[3]": {"biological_target": "human serotonin transporter (hSERT) (Homo sapiens, UniProt P31645)", "sequence (P31645 whole entry)": "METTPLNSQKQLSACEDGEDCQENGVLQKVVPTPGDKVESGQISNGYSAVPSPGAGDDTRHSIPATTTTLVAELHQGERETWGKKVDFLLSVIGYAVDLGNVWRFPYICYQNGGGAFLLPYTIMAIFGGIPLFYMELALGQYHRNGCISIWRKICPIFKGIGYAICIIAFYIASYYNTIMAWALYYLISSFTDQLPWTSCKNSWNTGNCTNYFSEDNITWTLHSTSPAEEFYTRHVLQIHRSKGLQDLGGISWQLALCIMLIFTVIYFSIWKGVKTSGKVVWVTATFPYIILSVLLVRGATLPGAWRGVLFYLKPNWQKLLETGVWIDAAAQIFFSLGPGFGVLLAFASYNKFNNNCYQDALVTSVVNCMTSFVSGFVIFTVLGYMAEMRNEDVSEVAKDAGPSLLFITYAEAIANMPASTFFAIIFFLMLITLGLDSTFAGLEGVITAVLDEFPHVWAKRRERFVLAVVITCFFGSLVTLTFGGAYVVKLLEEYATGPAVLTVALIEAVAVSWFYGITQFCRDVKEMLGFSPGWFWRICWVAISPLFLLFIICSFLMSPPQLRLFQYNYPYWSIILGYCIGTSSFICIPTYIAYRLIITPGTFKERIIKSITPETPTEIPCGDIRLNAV", "experiment": "cell-based"}, "5-HT1A": {"biological_target": "T2, 5-HT1A (Homo sapiens, UniProt P08908)", "T2 sequence (P08908 1-422)": "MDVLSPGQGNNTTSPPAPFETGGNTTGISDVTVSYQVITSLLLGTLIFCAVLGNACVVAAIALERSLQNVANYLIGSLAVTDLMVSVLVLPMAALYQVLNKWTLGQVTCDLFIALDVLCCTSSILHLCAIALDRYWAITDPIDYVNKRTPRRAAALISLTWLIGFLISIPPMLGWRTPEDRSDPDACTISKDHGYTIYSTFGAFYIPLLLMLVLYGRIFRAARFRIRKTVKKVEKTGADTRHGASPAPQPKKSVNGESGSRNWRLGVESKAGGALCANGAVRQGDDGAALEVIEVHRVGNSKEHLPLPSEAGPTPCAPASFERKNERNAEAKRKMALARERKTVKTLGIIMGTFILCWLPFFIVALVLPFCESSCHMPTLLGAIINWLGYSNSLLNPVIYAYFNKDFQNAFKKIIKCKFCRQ", "experiment": "MDS Pharma serotonin receptor binding, 5-HT1A"}, "5-HT1B": {"biological_target": "5-HT1B (Rattus norvegicus, UniProt P28564)", "sequence (P28564 whole entry)": "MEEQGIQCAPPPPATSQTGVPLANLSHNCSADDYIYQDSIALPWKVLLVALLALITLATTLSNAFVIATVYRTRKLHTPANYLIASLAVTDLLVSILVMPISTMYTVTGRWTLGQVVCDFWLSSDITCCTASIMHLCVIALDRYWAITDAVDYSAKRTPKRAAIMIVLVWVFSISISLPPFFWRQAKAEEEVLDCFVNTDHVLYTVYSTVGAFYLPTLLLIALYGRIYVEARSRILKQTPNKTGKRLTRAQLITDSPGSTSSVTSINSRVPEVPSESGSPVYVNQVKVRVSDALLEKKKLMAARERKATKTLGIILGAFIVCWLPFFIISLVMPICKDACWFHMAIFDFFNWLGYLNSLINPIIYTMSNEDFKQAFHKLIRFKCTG", "experiment": "MDS Pharma serotonin receptor binding, 5-HT1B"}, "5-HT2B": {"biological_target": "5-HT2B (Homo sapiens, UniProt P41595)", "sequence (P41595 whole entry, species assumed)": "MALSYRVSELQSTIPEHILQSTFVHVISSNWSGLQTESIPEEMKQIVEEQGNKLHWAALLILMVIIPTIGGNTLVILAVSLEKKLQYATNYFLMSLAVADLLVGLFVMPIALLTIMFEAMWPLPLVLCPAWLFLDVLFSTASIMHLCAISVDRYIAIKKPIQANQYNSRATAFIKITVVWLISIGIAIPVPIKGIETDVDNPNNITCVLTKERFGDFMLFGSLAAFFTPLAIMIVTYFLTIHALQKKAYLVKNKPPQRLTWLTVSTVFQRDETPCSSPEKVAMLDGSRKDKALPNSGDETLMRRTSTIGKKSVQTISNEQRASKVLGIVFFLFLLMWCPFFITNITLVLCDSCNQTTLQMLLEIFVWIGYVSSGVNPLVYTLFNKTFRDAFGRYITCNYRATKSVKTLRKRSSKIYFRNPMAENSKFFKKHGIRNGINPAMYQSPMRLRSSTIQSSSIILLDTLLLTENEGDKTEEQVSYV", "experiment": "MDS Pharma serotonin receptor binding, 5-HT2B"}, "5-HT2C": {"biological_target": "T3, 5-HT2C (Homo sapiens, UniProt P28335)", "T3 sequence (P28335 33-458)": "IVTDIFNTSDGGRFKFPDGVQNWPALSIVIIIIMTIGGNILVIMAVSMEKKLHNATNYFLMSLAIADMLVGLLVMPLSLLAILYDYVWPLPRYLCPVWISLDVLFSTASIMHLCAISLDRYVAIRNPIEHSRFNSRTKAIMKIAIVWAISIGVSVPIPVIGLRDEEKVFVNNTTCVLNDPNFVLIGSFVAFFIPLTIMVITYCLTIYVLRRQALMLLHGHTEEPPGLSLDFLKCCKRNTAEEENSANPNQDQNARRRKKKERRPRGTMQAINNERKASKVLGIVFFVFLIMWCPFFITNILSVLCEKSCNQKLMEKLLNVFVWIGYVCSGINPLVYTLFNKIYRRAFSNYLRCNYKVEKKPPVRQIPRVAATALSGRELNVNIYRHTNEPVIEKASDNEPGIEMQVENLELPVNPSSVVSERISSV", "experiment": "MDS Pharma serotonin receptor binding, 5-HT2C"}, "5-HT3": {"biological_target": "T4, 5-HT3 (Homo sapiens, UniProt P46098)", "T4 sequence (P46098 24-478)": "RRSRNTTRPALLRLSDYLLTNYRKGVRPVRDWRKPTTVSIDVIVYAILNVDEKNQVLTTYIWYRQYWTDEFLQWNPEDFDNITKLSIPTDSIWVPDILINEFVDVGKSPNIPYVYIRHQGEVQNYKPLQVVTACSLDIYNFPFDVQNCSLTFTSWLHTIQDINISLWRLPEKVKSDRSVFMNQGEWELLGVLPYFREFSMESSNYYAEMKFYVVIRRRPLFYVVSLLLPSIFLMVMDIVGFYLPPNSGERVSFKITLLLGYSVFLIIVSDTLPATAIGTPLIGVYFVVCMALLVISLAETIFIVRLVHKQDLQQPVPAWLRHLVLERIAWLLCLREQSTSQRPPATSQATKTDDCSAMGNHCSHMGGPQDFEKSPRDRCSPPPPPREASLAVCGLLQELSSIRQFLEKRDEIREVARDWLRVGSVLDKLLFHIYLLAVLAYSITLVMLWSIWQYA", "experiment": "MDS Pharma serotonin receptor binding, 5-HT3"}, "5-HT4": {"biological_target": "5-HT4 (Cavia porcellus, UniProt O70528)", "sequence (O70528 whole entry)": "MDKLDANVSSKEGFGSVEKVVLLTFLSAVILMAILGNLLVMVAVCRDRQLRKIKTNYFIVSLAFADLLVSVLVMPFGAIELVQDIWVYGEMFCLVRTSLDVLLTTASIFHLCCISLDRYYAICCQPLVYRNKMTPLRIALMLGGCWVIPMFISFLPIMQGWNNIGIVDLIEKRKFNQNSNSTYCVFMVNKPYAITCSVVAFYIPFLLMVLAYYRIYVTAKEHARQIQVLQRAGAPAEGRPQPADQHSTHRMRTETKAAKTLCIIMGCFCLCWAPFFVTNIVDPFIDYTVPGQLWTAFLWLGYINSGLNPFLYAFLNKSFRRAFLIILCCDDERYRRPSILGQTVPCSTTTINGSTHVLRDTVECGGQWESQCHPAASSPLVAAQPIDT", "experiment": "MDS Pharma serotonin receptor binding, 5-HT4"}, "5-HT5A": {"biological_target": "5-HT5A (Homo sapiens, UniProt P47898)", "sequence (P47898 whole entry, species assumed)": "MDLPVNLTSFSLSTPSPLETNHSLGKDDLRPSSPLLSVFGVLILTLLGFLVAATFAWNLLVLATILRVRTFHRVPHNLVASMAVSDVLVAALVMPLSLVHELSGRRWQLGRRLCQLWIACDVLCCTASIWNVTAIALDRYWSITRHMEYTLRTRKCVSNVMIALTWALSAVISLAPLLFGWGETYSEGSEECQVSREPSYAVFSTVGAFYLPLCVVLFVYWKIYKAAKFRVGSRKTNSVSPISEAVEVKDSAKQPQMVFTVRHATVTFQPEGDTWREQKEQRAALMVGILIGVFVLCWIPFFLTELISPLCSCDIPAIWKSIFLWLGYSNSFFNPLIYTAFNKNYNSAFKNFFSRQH", "experiment": "MDS Pharma serotonin receptor binding, 5-HT5A"}, "5-HT6": {"biological_target": "5-HT6 (Homo sapiens, UniProt P50406)", "sequence (P50406 whole entry, species assumed)": "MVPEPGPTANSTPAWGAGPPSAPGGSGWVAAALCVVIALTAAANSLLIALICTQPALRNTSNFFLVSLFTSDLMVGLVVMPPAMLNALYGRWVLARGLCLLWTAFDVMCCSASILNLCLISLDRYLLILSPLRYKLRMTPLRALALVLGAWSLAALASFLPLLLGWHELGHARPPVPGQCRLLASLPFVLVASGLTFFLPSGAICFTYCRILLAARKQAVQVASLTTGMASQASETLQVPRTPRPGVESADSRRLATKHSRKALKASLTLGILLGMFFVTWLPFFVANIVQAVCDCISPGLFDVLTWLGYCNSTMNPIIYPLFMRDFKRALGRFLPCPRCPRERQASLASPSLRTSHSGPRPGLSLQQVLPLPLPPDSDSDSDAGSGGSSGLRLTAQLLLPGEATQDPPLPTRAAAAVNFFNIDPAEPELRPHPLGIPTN", "experiment": "MDS Pharma serotonin receptor binding, 5-HT6"}, "[4]": {"conditions": "read-out: 5-HT7 receptor binding IC50, pure compounds"}}, "note": "Read-outs that look alike come from different tables or passages of the source.", "data": [{"compound": "23-O-acetylshengmanol-3-β-D-xyloside", "values": [{"measurement": "5-HT7 competitive binding % Inhibition ± SD", "setting": "5-HT7 receptor [1]", "result": "35 ± 10", "unit": "%"}]}, {"compound": "25-anhydrocimigenol-3-O- β-xyloside", "values": [{"measurement": "5-HT7 competitive binding % Inhibition ± SD", "setting": "5-HT7 receptor [1]", "result": "31 ± 8", "unit": "%"}]}, {"compound": "CC(=O)O[C@@H]1C[C@@]23C[C@@]24CC[C@H](O[C@@H]2OC[C@@H](O)[C@H](O)[C@H]2O)C(C)(C)[C@@H]4CC[C@H]3[C@]2(C)C[C@@H]3O[C@@]4(C[C@@H](C)[C@@H]3[C@@]12C)OC[C@@]1(C)O[C@@H]41", "note": "[23-epi-26-deoxyactein]", "values": [{"measurement": "IC50", "setting": "5-HT7 receptor [1]; [4]", "result": "≥ 100000", "unit": "nM"}]}, {"compound": "CC(=O)O[C@@H]1C[C@@]23C[C@@]24CC[C@H](O[C@@H]2OC[C@@H](O)[C@H](O)[C@H]2O)C(C)(C)[C@@H]4CC[C@H]3[C@]2(C)C[C@@H]3O[C@]4(C[C@@H](C)[C@@H]3[C@@]12C)OC[C@@]1(C)O[C@@H]41", "note": "[26-deoxyactein]", "values": [{"measurement": "IC50", "setting": "5-HT7 receptor [1]; [4]", "result": "≥ 100000", "unit": "nM"}, {"measurement": "5-HT7 competitive binding % Inhibition ± SD", "setting": "5-HT7 receptor [1]", "result": "38 ± 4", "unit": "%"}]}, {"compound": "COc1cc(/C=C/C(=O)O[C@H](C(=O)O)[C@](O)(Cc2ccc(O)c(O)c2)C(=O)O)ccc1O", "note": "[Cimicifugic acid A, cimicifugic acid A]", "values": [{"measurement": "IC50", "setting": "5-HT7 receptor [1]", "result": "> 500000", "unit": "nM"}]}, {"compound": "COc1ccc(/C=C/C(=O)O[C@H](C(=O)O)[C@](O)(Cc2ccc(O)c(O)c2)C(=O)O)cc1O", "note": "[Cimicifugic acid B, cimicifugic acid B]", "values": [{"measurement": "IC50", "setting": "5-HT7 receptor [1]", "result": "> 500000", "unit": "nM"}]}, {"compound": "COc1cc(/C=C/C(=O)O[C@H](C(=O)O)[C@](O)(Cc2ccc(O)cc2)C(=O)O)ccc1O", "note": "[Cimicifugic acid E, cimicifugic acid E]", "values": [{"measurement": "IC50", "setting": "5-HT7 receptor [1]", "result": "> 500000", "unit": "nM"}]}, {"compound": "COc1ccc(/C=C/C(=O)O[C@H](C(=O)O)[C@](O)(Cc2ccc(O)cc2)C(=O)O)cc1O", "note": "[Cimicifugic acid F, cimicifugic acid F]", "values": [{"measurement": "IC50", "setting": "5-HT7 receptor [1]", "result": "> 500000", "unit": "nM"}]}, {"compound": "CC(=O)O[C@@H]1C[C@@]23C[C@@]24CC[C@H](O[C@@H]2OC[C@H](O)[C@H](O)[C@H]2O)C(C)(C)[C@@H]4CC[C@H]3[C@]2(C)C[C@@H]3O[C@]4(C[C@@H](C)[C@@H]3[C@@]12C)OC[C@]1(C)O[C@H]41", "note": "[Cimiracemoside N]", "values": [{"measurement": "5-HT7 competitive binding % Inhibition ± SD", "setting": "5-HT7 receptor [1]", "result": "18 ± 4", "unit": "%"}]}, {"compound": "CC(=O)O[C@@H]1CO[C@@H](O[C@H]2CC[C@]34C[C@]35C[C@@H](OC(C)=O)[C@]3(C)[C@H]6[C@H](C)C[C@]7(OC(O)[C@]8(C)O[C@H]78)O[C@H]6C[C@@]3(C)[C@@H]5CC[C@H]4C2(C)C)[C@H](O)[C@H]1O", "note": "(stereo partly drawn) [Cimiracemoside O]", "values": [{"measurement": "5-HT7 competitive binding % Inhibition ± SD", "setting": "5-HT7 receptor [1]", "result": "19 ± 5", "unit": "%"}]}, {"compound": "CNCCc1c[nH]c2ccc(O)cc12", "note": "[Nω-methylserotonin, 3-(2-Methylaminoethyl)indol-5-ol]", "values": [{"measurement": "IC50", "setting": "5-HT7 receptor [1]; 5-HT7 receptor binding IC50", "result": 0.023, "unit": "nM"}, {"measurement": "IC50", "setting": "5-HT7 receptor [1]; IC50, 5-HT7, triplicate in three independent experiments", "result": 0.02, "unit": "nM"}, {"measurement": "EC50", "setting": "5-HT7 receptor [2]", "result": 22, "unit": "nM"}, {"measurement": "maximum cAMP induction", "setting": "5-HT7 receptor [2]; at 100 nM, the highest tested concentration", "result": 43, "unit": "pmol/mL"}, {"measurement": "IC50", "setting": "[3]", "result": 490, "unit": "nM"}, {"measurement": "IC50", "setting": "5-HT1A", "result": 2, "unit": "nM"}, {"measurement": "IC50", "setting": "5-HT1B", "result": 15, "unit": "nM"}, {"measurement": "IC50", "setting": "5-HT2B", "result": 97, "unit": "nM"}, {"measurement": "IC50", "setting": "5-HT2C", "result": 101, "unit": "nM"}, {"measurement": "IC50", "setting": "5-HT3", "result": 1670, "unit": "nM"}, {"measurement": "IC50", "setting": "5-HT4", "result": 6700, "unit": "nM"}, {"measurement": "IC50", "setting": "5-HT5A", "result": 289, "unit": "nM"}, {"measurement": "IC50", "setting": "5-HT6", "result": 55, "unit": "nM"}]}, {"compound": "O=C(/C=C/c1ccc(O)c(O)c1)O[C@H](C(=O)O)[C@](O)(Cc1ccc(O)c(O)c1)C(=O)O", "note": "[fukinolic acid]", "values": [{"measurement": "IC50", "setting": "5-HT7 receptor [1]", "result": 100000, "unit": "nM"}]}, {"compound": "Actein (R,S)", "values": [{"measurement": "IC50", "setting": "5-HT7 receptor [1]; [4]", "result": "≥ 100000", "unit": "nM"}]}]}
